In US20230381176A1, “A PHARMACEUTICAL COMPOSITION AND USE THEREOF FOR TREATMENT OF CANCER” (Ascentage Pharma (Suzhou) Co., Ltd., priority 2020, published 2023):

Experiments:
[1] = tested on: PTK2 high NSCLC PDX LU-01-0604; assay: s.c. PTK2 high NSCLC PDX model LU-01-0604, Compound 5 and carboplatin; type: in vivo, mouse
Procedure: (§1) A subcutaneous xenograft tumor model of human tumor immunodeficient mice was established by cell inoculation: tumor cells in logarithmic growth phase were collected, counted, resuspended in 1×PBS, and the cell suspension concentration was adjusted to 2.5-5 ×10^7/mL. The tumor cells were inoculated subcutaneously in the right side of immunodeficient mice with a 1 mL syringe ([…]), 5-10×10^6/0.2 mL/mouse. All animal experiments were strictly in accordance with the specifications for the use and management of experimental animals in GenePharma Co., Ltd. and Suzhou Ascentage Pharma Co., Ltd. The calculation of relevant parameters refers to the Chinese NMPA “Guidelines for Non-Clinical Research Techniques of Cytotoxic Anti-tumor Drugs”.
(§2) Animal body weight and tumor size were measured twice weekly during the experiment. The state of the animal and the presence or absence of death were observed every day. The growth of tumor and the effects of treatment on normal behavior of animals were monitored routinely, specifically involving experimental animal activity, feeding and drinking, weight gain or loss, eyes, clothing hair and other abnormalities. The deaths and clinical symptoms observed during the experiment were recorded in the raw data. All operations for administration and measurement of mouse body weight and tumor volume were performed in a clean bench. According to the requirements of the experimental protocol, after the end of the last administration, plasma and tumor tissues were collected, weighed and photographed. The plasma and tumor samples were frozen at −80° C. for ready-to-use.
(§3) Tumor volume (TV) is calculated as: TV=a×b^2/2, wherein a and b represent the length and width of the tumor to be measured, respectively.
(§4) The relative tumor volume (RTV) is calculated as: RTV=Vt/V1, wherein V1 is the tumor volume at the start of grouping and administration, and Vt is the tumor volume measured on the t day after administration.
(§5) The evaluation index of anti-tumor activity is the relative tumor proliferation rate T/C (%), and the calculation formula thereof is: relative tumor proliferation rate T/C (%)=(TRTV/CRTV)×100%, TRTV is the RTV of treatment group, CRTV is the RTV of solvent control group.
(§6) Change of body weight (%)=(measured body weight−body weight at the start of grouping)/body weight at the start of grouping×100%.
(§7) A dose of drug is considered to be severely toxic if the body weight of mouse is reduced by more than 20% or the number of drug-related deaths exceeds 20%.
(§8) According to the description by Clarke R., Issues in experimental design and endpoint analysis in the study of experimental cytotoxic agents in vivo in breast cancer and other models [J]. Breast Cancer Research & Treatment, 1997, 46(2-3): 255-278, synergy analysis was evaluated using the following formula: synergy factor=((A/C)×(B/C))/(AB/C); A=RTV value of drug A alone group; B=RTV value of drug B alone group; C=RTV value of the solvent control group, and AB=RTV value of the A and B combination group.
Use of mRECIST (Gao et al., 2015) measured tumor responses included stable disease (SD), partial tumor regression (PR), and complete regression (CR), determined by comparing tumor volume change at day t to its baseline: tumor volume change (%)=(Vt−V1)/V1. The BestResponse was the minimum value of tumor volume change (%) for t≥10. For each time t, the average of tumor volume changes from t=1 to t was also calculated. BestAvgResponse was defined as the minimum value of this average for t≥10. The criteria for response (mRECIST) were adapted from RECIST criteria (Gao et al., 2015; Therasse et al., 2000) and defined as follows: mCR, BestResponse<−95% and BestAvg Response<−40%; mPR, BestResponse<−50% and BestAvgResponse<−20%; mSD, BestResponse<35% and BestAvgResponse<30%; mPD, not otherwise categorized. SD, PR, and CR were considered responders and used to calculate response rate (%). […] Body weight of animals were monitored simultaneously. […]

ovarian PA-1 xenograft = assay: s.c. ovarian PA-1 xenograft tumor model, Compound 5 and carboplatin; type: in vivo, mouse; settings: Compound 5 100 mg/kg orally once per day 21 days, carboplatin 50 mg/kg i.p. once on Day 1
Procedure: as §1, §2, §3, §4, §5, §6, §7, §8
Use of mRECIST (Gao et al., 2015) measured tumor responses included stable disease (SD), partial tumor regression (PR), and complete regression (CR), determined by comparing tumor volume change at day t to its baseline: tumor volume change (%)=(Vt−V1)/V1. The BestResponse was the minimum value of tumor volume change (%) for t≥10. For each time t, the average of tumor volume changes from t=1 to t was also calculated. […] Body weight of animals were monitored simultaneously. […]

[2] = tested on: PTK2 high ovarian PDX OV2423; assay: PTK2 high ovarian PDX model OV2423, Compound 5 and carboplatin and/or paclitaxel; type: in vivo, mouse
Procedure: as §1, §2, §3, §4, §6, §7, §8
(§9) Use of mRECIST (Gao et al., 2015) measured tumor responses included stable disease (SD), partial tumor regression (PR), and complete regression (CR), determined by comparing tumor volume change at day t to its baseline: tumor volume change (%)=(Vt−V1)/V1. The BestResponse was the minimum value of tumor volume change (%) for t≥10. For each time t, the average of tumor volume changes from t=1 to t was also calculated. BestAvgResponse was defined as the minimum value of this average for t≥10. The criteria for response (mRECIST) were adapted from RECIST criteria (Gao et al., 2015; Therasse et al., 2000) and defined as follows: mCR, BestResponse<−95% and BestAvg Response<−40%; mPR, BestResponse<−50% and BestAvgResponse<−20%; mSD, BestResponse<35% and BestAvgResponse<30%; mPD, not otherwise categorized. SD, PR, and CR were considered responders and used to calculate response rate (%). […] Body weight of animals were monitored simultaneously. The change in body weight was calculated based on the animal weight of the first day of dosing (day 1). Tumor volume and changes in body weight (%) were represented as the mean±standard error of the mean (SEM).

ovarian PDX OV1658 = assay: Ovarian PDX model OV1658, Compound 5 and carboplatin and/or paclitaxel; type: in vivo, mouse
Procedure: as §1, §2, §3, §4, §6, §7, §8, §9

[3] = tested on: PTK2 high ovarian PDX OV1385; assay: PTK2 high ovarian PDX model OV1385, Compound 5 and carboplatin and/or paclitaxel; type: in vivo, mouse
Procedure: as §1, §2, §3, §4, §6, §7, §8, §9

NCI-H2228 tumor cells = assay: Cell viability WST (CCK-8) assay, combination of Compound 5 and Compound 34; type: cell-based; settings: Homo sapiens, 72 hours, single agent, read-out: Compound B IC50
Procedure: Cell plating: Anti-proliferative effects were detected by a CCK-8 (Cell Counting Kit-8, Shanghai life iLab, China) assay based on water soluble tetrazolium salt (WST). The cells were seeded in 96-well plates, and only 95 μL of complete medium was added to each negative control group. 95 μL of complete medium cell suspension was added to each well to be tested, and the cell density was (5-10)×10^4/hole. Dosing (protection from light): […] After 72 hours of action by using 6 different concentrations of Compound 34 with 3 fixed doses of Compound 5, the combination effect of Compound 5 an Compound 34 was tested. Reading: […] The plates were continuously incubated at 37 ° C. for 2-4 hours in a CO2 incubator. The OD values were measured using a microplate reader (SpectraMax Plus 384, Molecular Devices, LLC., US) under A450 nm. […] (O.D. of test well−O.D. of blank control well)/(O.D. of cell control well−O.D. of blank control well)×100%. IC50 values were calculated using Graphpad Prism 6.0 software for nonlinear regression data analysis method.

[4] = Compound 5 50 mg/kg orally once per day, carboplatin 30 mg/kg i.p. once per week, 29 days
[5] = Compound 5 50 mg/kg orally once per day, carboplatin 30 mg/kg i.p. once a week, paclitaxel 10 mg/kg i.v. once a week, 28 days
[6] = Compound 5 50 mg/kg orally once per day, carboplatin 30 mg/kg i.p. once a week, paclitaxel 10 mg/kg i.v. once a week, 19 days
[7] = Compound 5 50 mg/kg orally once per day, carboplatin 30 mg/kg i.p. once a week, paclitaxel 10 mg/kg i.v. once a week, 35 days

N.N.O=C([O-])C1(C(=O)[O-])CCC1.[Pt+2] [Carboplatin, carboplatin]
RTV on Day 29 after administration (mean ± standard error) [1, 4]: 11.15 ± 6.55
T/C on Day 29 after administration (%) [1, 4]: 127.72%
antitumor activity (conclusion in words) ([1]; mouse, in vivo): no antitumor activity
RTV on Day 22 after administration (mean ± standard error) (ovarian PA-1 xenograft): 15.1 ± 2.3
T/C on Day 22 after administration (%) (ovarian PA-1 xenograft): 94.97%
RTV on Day 28 after administration (mean ± standard error) [2, 5]: 8.97 ± 1.24
T/C on Day 28 after administration (%) [2, 5]: 47.76%
mRECIST ([2]; animals per class): 2/2 PD
antitumor activity (conclusion in words) ([2]; mouse, in vivo): moderate antitumor activity
RTV on Day 19 after administration (mean ± standard error) (ovarian PDX OV1658; [6]): 9.34 ± 2.01
T/C on Day 19 after administration (%) (ovarian PDX OV1658; [6]): 68.37%
mRECIST on Day 19 after administration (ovarian PDX OV1658; Day 19, animals per class): 2/2 PD
mRECIST (ovarian PDX OV1658; best response, animals per class): 2/2 PD
antitumor activity (conclusion in words) (ovarian PDX OV1658; mouse, in vivo): minor antitumor activity
RTV on Day 35 after administration (mean ± standard error) [3, 7]: 2.08 ± 0.49
T/C on Day 35 after administration (%) [3, 7]: 51.49%
mRECIST on Day 35 after administration ([3]; Day 35, animals per class): 2/2 PD
antitumor activity (conclusion in words) ([3]; mouse, in vivo): moderate antitumor activity

Cc1ccc(C(=O)Nc2ccc(CN3CCN(C)CC3)c(C(F)(F)F)c2)cc1C#Cc1cnc2[nH]ncc2c1 [Compound 34]
IC50 (NCI-H2228 tumor cells): 1.68 µM
